Here are results for ten compounds from patent US6855735B2, “Ketamine treatment of restless legs syndrome” (Temple University of the Commonwealth System of Higher …, priority 2002, dated 2005).

Values joined by “and” are separate entries in the source; they are usually repeats but may differ in a detail not shown here. Identical values can stand only once.

Data set [1] has as its system patients with RLS. Briefly: Case reports: oral ketamine in patients with RLS (Examples 1-6). To be noted: for earlier treatment / earlier treatment of back pain, neurogenic claudication and RLS: before ketamine. The data set is classed as in vivo, human. The method, then: A patient presented with a history of back pain, neurogenic claudication, and RLS. Treatment with the dopaminergic agonist, pergolide and oxycodone had been ineffective. In addition to RLS, the patient's past history included prior spinal surgery, insulin-dependent diabetes mellitus, sleep apnea, and congestive heart failure. Their family history was positive for RLS.
The patient was prescribed amitriptyline 25 mg at bedtime and gabapentin 300 mg three times daily in addition to their other medications.
After consenting to the evaluation of single dose efficacy of oral ketamine, the patient received 30 mg of ketamine mixed in 50 cc (or ml) of water. After 20 minutes of observation, the patient noted that their VAS score had improved to 2/10.
A patient with a history of chronic lower back pain, spinal stenosis, scoliosis, and RLS complained of worsening neurogenic claudication. Their VAS was 7/10.
The patient was then treated with 50 mg of oral ketamine.
A patient presented with a history of cardiac transplant, on immune suppressive medication, could not be treated with steroids for with spinal stenosis, neurogenic claudication, and RLS.
A patient presented with a history of multiple back surgeries and depression. […] Opioids were restarted to control the return of the patient's back pain.
A patient presented with a history of a renal transplant with documented lumbar radiculopathy and severe RLS on immunosuppressive treatment. The RLS symptoms were so severe that the patient could not keep their legs still at their initial office visit. […] While the RLS remitted during 4 months of treatment with 25 mg of ketamine daily, opioids were added to the treatment for pain control.
A dialysis patient presented with a history of failed back surgery, spinal stenosis and severe leg pain which responded to treatment with methadone but maintained severe RLS where the patient was not able to sleep more than 2 hours/night.

For data set [2] the following is noted: cited from earlier work.
Data set [3] relates to patients with RLS. The data set is described as follows: Patients treated with doses of oral ketamine (Examples 7-23, Table). The data set is classed as in vivo, human. The method, then:
In the Table shown below, patients were treated with doses of oral ketamine.
(§1) The patients, shown in Examples 7-23, were treated with doses of liquid oral ketamine or oral ketamine in tablet form. There were no patients who had serum levels of ketamine measured that reached the levels reported for therapeutic analgesic effect of ketamine, i.e., 200 ng/ml.

A short description of data set [4]: Serum levels of ketamine in patients treated with low doses of oral ketamine. The data set is classed as in vivo, human. The procedure: Also, it is suitable that the dose of ketamine administered is less than the dose generally administered for alleviation of pain. For example, since only about 20% of an oral dose of ketamine is absorbed, the successful treatment of a patient with 2 mg of ketamine for RLS over a 24 hour period would equal less than 0.001 mg/kg/hour. At these doses, the threshold serum level for pyschotomimetic side effects (on the order of 50 ng/ml) is not reached. Moreover, the threshold serum level for pain relief (on the order of 200 ng/ml) is also not approached. […] Thus, the serum levels at which oral ketamine acts to relieve RLS are substanitially lower than those reported for pain relief. Treatment with low dosages of oral ketamine provides relief for subjects suffering from or affected by RLS by alleviating symptoms associated with RLS, and avoids the side effects generally encountered in the use of ketamine for the treatment of conscious patients and/or other therapies for RLS described above.
as §1

Another data set has as its system NMDA receptor. To be noted: primary metabolite of oral ketamine; cited from earlier work.
The mark [5] stands for this setting: Example 1, amitriptyline 25 mg at bedtime and gabapentin 300 mg three times daily together, a month later.
Setting [6] is: one patient per row (Examples 7-23), oral ketamine 10-100 mg/24 hours (col I), treatment 1-8 months (col G).
Where [7] appears, read: Example 3, oral 20 mg at bedtime.

As for `CN(C)CCC=C1c2ccccc2CCc2ccccc21` [amitriptyline], in the data set on patients with RLS [1] (setting [5]), the symptoms result is recorded as “no improvement in their symptoms” and the “verbal analog pain score (VAS)” value is reported as 6/10.
For `NCC1(CC(=O)O)CCCCC1` [gabapentin], in the data set with patients with RLS [1] (setting [5]), the symptoms result is recorded as “no improvement in their symptoms” and the “verbal analog pain score (VAS)” value is 6/10. Further, the earlier treatment entry in the data set with patients with RLS [1] (Example 2) is “without success”.
On to `CNC1(c2ccccc2Cl)CCCCC1=O` (centres unmarked) [ketamine, (2-o-chlorophenyl)-2-(methylamino)-cyclohexanone], for which the “threshold serum level for pain relief” value in data set [2] (in vivo) was about 200 ng/mL. The “fraction of an oral dose absorbed” value in data set [2] (oral) is listed as “about 20%”. Also, in the data set with patients with RLS [3] (setting [6]), the “F = VAS or visual analog scale for pain/walking ability (improvement)” value was 80% (4×) and 60% (5×) and 90% and 70% (4×) and 50% (2×) and 40%; the “J = complications” value is “No (14×) and Yes (2×) and Rash”. The RLS symptoms entry with patients with RLS [3] (patients of Examples 7-23, low ketamine dosage) was “improved related limb sensations, motor restlessness and insomnia”. Besides, in the data set on patients with RLS [1] (Example 1, person, single oral dose 30 mg ketamine in 50 cc water, after 20 minutes, VAS before 6/10), the “verbal analog pain score (VAS)” value is given as 2/10. The “sleep and RLS” value in the data set with patients with RLS [1] (Example 1, oral 30 mg twice a day for 6 months) was “improvement in sleep and RLS”. The “side effects after single dose” value in the data set on patients with RLS [1] (Example 1, single oral dose 30 mg) is on record as “no dizziness, or other distressing symptoms”. Further, in the data set with patients with RLS [1] (Example 2, person, 50 mg oral ketamine, within 15 minutes, VAS before 7/10), the VAS was 2/10. The walking entry in the data set on patients with RLS [1] (Example 2, 50 mg oral ketamine, within 15 minutes) is reported as “subjective improvement in walking”. Besides, in the data set with patients with RLS [1] (Example 2, oral 40 mg twice a day, a month following the trial), the “sleep and RLS symptoms” value is “significant improvement in their sleep and RLS symptoms”. In the data set with patients with RLS [1] (setting [7]), the pain relief result is “no pain relief” and the side effects entry is reported as “psychotomimetic side effects”. In addition, the RLS result with patients with RLS [1] (Example 3, oral 20 mg at bedtime, persisted after ketamine was stopped) is recorded as “resolution of RLS”. Besides, the “RLS symptoms and sleep” value with patients with RLS [1] (Example 4, oral daily 25 mg) is “lessened RLS symptoms and improved sleep”. Further, the “pain and RLS” value in the data set with patients with RLS [1] (Example 5, renal transplant patient, oral daily 10 mg) is “pain relief and resolution of RLS”. For the same compound, in the data set with patients with RLS [1] (Example 5, 25 mg daily, 4 months of treatment), the RLS entry is “RLS remitted”. In addition, in the data set with patients with RLS [1] (Example 6, dialysis patient, 2 mg oral at bedtime), the “reduction of RLS symptoms” value is reported as “more than 50%”. Further, the “tolerability (psychotomimetic effects)” value in the data set with patients with RLS [1] (Example 6, dialysis patient, 20 mg daily oral) is “could not tolerate”. In the data set with patients with RLS [1] (Example 6, 2 mg oral at bedtime), the psychotomimetic side effects entry is listed as “no psychotomimetic side effects”. Besides, the sleep duration result in the data set on patients with RLS [1] (Example 6, 2 mg oral at bedtime, before not more than 2 hours/night) was “more than 4.5 hrs./night”. Also, the “serum levels of ketamine” value in data set [4] (patients of Examples 7-23 who had serum levels measured, liquid or tablet oral ketamine) is under 200 ng/mL. Further, in data set [4] (patients treated with low doses of oral ketamine for RLS, commercially available tests), the “serum levels of ketamine” value is listed as “not to have detectable serum levels”.
Turning to `CCC(=O)C(CC(C)N(C)C)(c1ccccc1)c1ccccc1` (centres unmarked) [methadone], the severe leg pain entry in the data set on patients with RLS [1] (Example 6, dialysis patient, severe RLS maintained) is listed as “responded”.
Take `NC1(c2ccccc2Cl)CCCCC1=O` (centres unmarked) [norketamine]: the “potency relative to ketamine” value in the data set with NMDA receptor is given as “one-third to one-fifth”.
On to `COc1ccc2c3c1O[C@H]1C(=O)CC[C@@]4(O)[C@@H](C2)N(C)CC[C@]314` [oxycodone], for which, in the data set on patients with RLS [1] (Example 1), the “earlier treatment of back pain, neurogenic claudication and RLS” value is recorded as “ineffective”.
`CCCN1C[C@H](CSC)C[C@@H]2c3cccc4[nH]cc(c34)C[C@H]21` [pergolide]: in the data set on patients with RLS [1] (Example 1), the “earlier treatment of back pain, neurogenic claudication and RLS” value is given as “ineffective”.
For `C=C[C@H]1C[N@@]2CC[C@H]1C[C@H]2[C@H](O)c1ccnc2ccc(OC)cc12` [quinine], the earlier treatment result in the data set on patients with RLS [1] (Example 2) is reported as “without success”.
On to `CS(=O)(=O)c1ccc(C2=C(c3ccccc3)C(=O)OC2)cc1` [rofecoxib], for which the earlier treatment result in the data set with patients with RLS [1] (Example 2) was “without success”.
Consider `COc1cccc(C2(O)CCCCC2CN(C)C)c1` (centres unmarked) [tramadol], for which the earlier treatment result in the data set on patients with RLS [1] (Example 2) was “without success”.
